33 molecules from US7932270B2 (Cytokinetics, Inc., priority 2006, dated 2011) can be followed below.

Molecules are shown by their SMILES.

T1 sequence (P02607 2-151): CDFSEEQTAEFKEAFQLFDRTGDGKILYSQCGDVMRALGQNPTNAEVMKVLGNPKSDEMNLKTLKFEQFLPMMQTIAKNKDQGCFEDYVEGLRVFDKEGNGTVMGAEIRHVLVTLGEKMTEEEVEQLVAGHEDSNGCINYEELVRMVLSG
T1 sequence (P10587 84-789): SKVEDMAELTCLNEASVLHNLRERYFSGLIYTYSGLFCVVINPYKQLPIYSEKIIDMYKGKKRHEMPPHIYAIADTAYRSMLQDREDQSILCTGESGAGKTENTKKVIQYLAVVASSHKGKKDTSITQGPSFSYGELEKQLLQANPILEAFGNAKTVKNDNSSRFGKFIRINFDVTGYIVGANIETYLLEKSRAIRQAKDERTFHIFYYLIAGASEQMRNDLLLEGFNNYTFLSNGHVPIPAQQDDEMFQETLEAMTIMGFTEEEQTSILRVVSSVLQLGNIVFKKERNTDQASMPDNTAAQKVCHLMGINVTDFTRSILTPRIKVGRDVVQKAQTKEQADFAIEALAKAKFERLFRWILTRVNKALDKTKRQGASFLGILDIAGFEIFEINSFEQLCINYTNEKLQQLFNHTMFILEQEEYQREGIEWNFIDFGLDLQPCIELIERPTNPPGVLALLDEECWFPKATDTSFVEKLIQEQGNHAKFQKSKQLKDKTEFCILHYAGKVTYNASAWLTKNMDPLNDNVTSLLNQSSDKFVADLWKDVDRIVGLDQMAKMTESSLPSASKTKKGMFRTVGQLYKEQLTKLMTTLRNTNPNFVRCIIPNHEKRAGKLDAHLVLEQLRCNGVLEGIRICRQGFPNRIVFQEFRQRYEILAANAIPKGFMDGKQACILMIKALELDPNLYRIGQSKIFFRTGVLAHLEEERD

The assay concerns the target T1, chicken gizzard smooth muscle myosin subfragment-1 chemically crosslinked to cardiac or skeletal actin (Gallus gallus, UniProt P10587).
T1 construct: chicken gizzard smooth muscle myosin subfragment-1; from tissue; host or cells: chicken gizzard
Briefly: Smooth muscle myosin ATPase dose response assay (pyruvate kinase/horseradish peroxidase/pyruvate oxidase-coupled, amplex red fluorescence). It is filed as biochemical. Conditions: read-out: IC50 Arithmetic Mean. An outline of the steps:
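Lead-optimization format: ATPase coupled via pyruvate kinase, pyruvate oxidase and peroxidase, pH 7.00 at 22° C, with 0.15 mM ATP, 100 mM KCl, 2 mM MgCl2, 2 mM phosphate and 0.1 mM amplex red (final). Crosslinked S1 titrated empirically for set hydrolysis rate; fluorescence (ex 480/em 615 nm) dose curves fit 4-parameter for IC50.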
In the case of `N#Cc1ccccc1-c1ccc(C(=O)NCC2CC2)c(NCCc2cccc(F)c2)n1` [(6-(2-cyanophenyl)-2-{[2-(3-fluorophenyl)ethyl]amino}(3-pyridyl))-N-(cyclopropylmethyl)carboxamide], the IC50 (as a rule, the concentration that inhibits the measured activity by half) was 136 nM.

Turning to `N#Cc1ccccc1-c1ccc(C(=O)NC[C@H]2CCCN(C(=O)CN)C2)c(NCCc2cccc(F)c2)n1` [N-{[(3R)-1-(2-aminoacetyl)(3-piperidyl)]methyl}(6-(2-cyanophenyl)-2-{[2-(3-fluorophenyl)ethyl]amino}(3-pyridyl))carboxamide], the IC50 was 246 nM. `N#Cc1ccccc1-c1ccc(C(=O)NCCCN2C(=O)CC[C@@H]2CN)c(NCCc2cccc(F)c2)n1` [N-{3-[(5R)-5-(aminomethyl)-2-oxopyrrolidinyl]propyl}(6-(2-cyanophenyl)-2-{[2-(3-fluorophenyl)ethyl]amino}(3-pyridyl))carboxamide]: the IC50 is 4950 nM. The result for `N#Cc1ccccc1-c1ccc(C(=O)NC[C@H]2CCCCN2S(=O)(=O)CCCN)c(NCCc2cccc(F)c2)n1` [N-({(2R)-1-[(3-aminopropyl)sulfonyl](2-piperidyl)}methyl)(6-(2-cyanophenyl)-2-{[2-(3-fluorophenyl)ethyl]amino}(3-pyridyl))carboxamide] reads 370 nM.

For `O=Cc1ccccc1-c1ccc(C(=O)NCc2cccnc2)c(NCCc2ccccn2)n1` [{6-(2-formylphenyl)-2-[(2-(2-pyridyl)ethyl)amino](3-pyridyl)}-N-(3-pyridylmethyl)carboxamide], the IC50 turned out to be 8750 nM.

As for `N#Cc1ccccc1-c1ccc(C(=O)NCc2ccc(N3CCOCC3)nc2)c(NCCc2cccc(F)c2)n1` [(6-(2-cyanophenyl)-2-{[2-(3-fluorophenyl)ethyl]amino}(3-pyridyl))-N-[(6-morpholin-4-yl(3-pyridyl))methyl]carboxamide], the IC50 came out at 16900 nM. As to `N#Cc1ccccc1-c1ccc(C(=O)NCC2CCNC2=O)c(NCCc2cccc(F)c2)n1` (stereo not drawn) [(6-(2-cyanophenyl)-2-{[2-(3-fluorophenyl)ethyl]amino}(3-pyridyl))-N-[(2-oxopyrrolidin-3-yl)methyl]carboxamide], the IC50 worked out at 32 nM. For the molecule `CC(C)C[C@@H](N)CNC(=O)c1ccc(-c2ccccc2C#N)nc1NCCc1cccc(F)c1` [N-((2R)-2-amino-4-methylpentyl)(6-(2-cyanophenyl)-2-{[2-(3-fluorophenyl)ethyl]amino}(3-pyridyl))carboxamide], the IC50 stood at 1240 nM. The result for `Cn1cc(-c2nc(NCCc3cccc(F)c3)c(C(=O)NCCCNC(=O)CNC(=O)OC(C)(C)C)cc2F)cn1` [2-[(tert-butoxy)carbonylamino]-N-{3-[(5-fluoro-2-{[2-(3-fluorophenyl)ethyl]amino}-6-(1-methylpyrazol-4-yl)(3-pyridyl))carbonylamino]propyl}acetamide] reads 768 nM; that for `NCCCC(=O)N1CCCC1CNC(=O)c1cc(F)c(-c2cc[nH]n2)nc1NCCc1cccc(F)c1` [N-{[(2R)-1-(4-aminobutanoyl)pyrrolidin-2-yl]methyl}(5-fluoro-2-{[2-(3-fluorophenyl)ethyl]amino}-6-pyrazol-3-yl(3-pyridyl))carboxamide], 169 nM. The result for `O=C(NCc1cccnc1)c1ccc(-c2ccccc2)nc1NCC(O)c1ccccc1` (stereo not drawn) [{2-[(2-hydroxy-2-phenylethyl)amino]-6-phenyl(3-pyridyl)}-N-(3-pyridylmethyl)carboxamide] reads 1940 nM.

In the case of `CC(C)(C)OC(=O)NCc1ncccc1CNC(=O)c1cc(F)c(-c2ccccn2)nc1NCCc1cccc(F)c1` [N-[(2-{[(tert-butoxy)carbonylamino]methyl}(3-pyridyl))methyl](5-fluoro-2-{[2-(3-fluorophenyl)ethyl]amino}-6-(2-pyridyl)(3-pyridyl))carboxamide], the half-inhibitory concentration (IC50) worked out at 3660 nM. With `CC[C@H](CNC(=O)c1cc(F)c(-c2cnn(C)c2)nc1NCCc1cccc(F)c1)NC(=O)CN` [N-((1R)-1-{[(5-fluoro-2-{[2-(3-fluorophenyl)ethyl]amino}-6-(1-methylpyrazol-4-yl)(3-pyridyl))carbonylamino]methyl}propyl)-2-aminoacetamide], the IC50 stood at 131 nM. Take `N#Cc1ccccc1-c1ccc(C(=O)NCC2CCCCCN2)c(NCCc2cccc(F)c2)n1` (stereo not drawn) [N-(azaperhydroepin-2-ylmethyl)(6-(2-cyanophenyl)-2-{[2-(3-fluorophenyl)ethyl]amino}(3-pyridyl))carboxamide]: the IC50 came to 2500 nM. The result for `N#Cc1ccccc1-c1ccc(C(=O)NCc2ccn(CCCN)n2)c(NCCc2cccc(F)c2)n1` [N-{[1-(3-aminopropyl)pyrazol-3-yl]methyl}(6-(2-cyanophenyl)-2-{[2-(3-fluorophenyl)ethyl]amino}(3-pyridyl))carboxamide] reads 65 nM; that for `Cc1cccc(CNC(=O)c2ccc(-c3ccccc3C#N)nc2NCCc2cccc(F)c2)n1` [(6-(2-cyanophenyl)-2-{[2-(3-fluorophenyl)ethyl]amino}(3-pyridyl))-N-[(6-methyl(2-pyridyl))methyl]carboxamide], 54 nM; that for `N#Cc1ccccc1-c1ccc(C(=O)NCC2CCN(CCCN)C2=O)c(NCCc2cccc(F)c2)n1` (stereo not drawn) [N-{[1-(3-aminopropyl)-2-oxopyrrolidin-3-yl]methyl}(6-(2-cyanophenyl)-2-{[2-(3-fluorophenyl)ethyl]amino}(3-pyridyl))carboxamide], 382 nM. The result for `Cn1cc(-c2nc(NCCc3cccc(F)c3)c(C(=O)NCCCNC(=O)CN)cc2F)cn1` [2-amino-N-{3-[(5-fluoro-2-{[2-(3-fluorophenyl)ethyl]amino}-6-(1-methylpyrazol-4-yl)(3-pyridyl))carbonylamino]propyl}acetamide] reads 2490 nM; that for `O=C(NCC(O)CO)c1cc(F)c(-c2cn[nH]c2)nc1NCCc1cccc(F)c1` (stereo not drawn) [N-(2,3-dihydroxypropyl)(5-fluoro-2-{[2-(3-fluorophenyl)ethyl]amino}-6-pyrazol-4-yl(3-pyridyl))carboxamide], 448 nM; that for `N#Cc1ccccc1-c1ccc(C(=O)NCc2ccc(CN)cc2)c(NCCc2cccc(F)c2)n1` [N-{[4-(aminomethyl)phenyl]methyl}(6-(2-cyanophenyl)-2-{[2-(3-fluorophenyl)ethyl]amino}(3-pyridyl))carboxamide], 277 nM. As for `N#Cc1ccccc1-c1ccc(C(=O)NC[C@H]2CCCNC2)c(NCCc2cccc(F)c2)n1` [N-[((3S)(3-piperidyl))methyl](6-(2-cyanophenyl)-2-{[2-(3-fluorophenyl)ethyl]amino}(3-pyridyl))carboxamide], the half-inhibitory concentration (IC50) worked out at 1970 nM. The value for `CCCNc1nc(-c2ccccc2)ccc1C(=O)NCc1cccnc1` [[6-phenyl-2-(propylamino)(3-pyridyl)]-N-(3-pyridylmethyl)carboxamide] was 11400 nM.

As to `O=C(NCc1cccnc1)c1ccc(-c2nnn[nH]2)nc1NCCc1cccc(F)c1` [(6-(1H-1,2,3,4-tetraazol-5-yl)-2-{[2-(3-fluorophenyl)ethyl]amino}(3-pyridyl))-N-(3-pyridylmethyl)carboxamide], the IC50 was 78100 nM.

With `N#Cc1ccccc1-c1ccc(C(=O)NC[C@@H]2CCCN2C(=O)CCCN)c(NCCc2cccc(F)c2)n1` [N-{[(2S)-1-(4-aminobutanoyl)pyrrolidin-2-yl]methyl}(6-(2-cyanophenyl)-2-{[2-(3-fluorophenyl)ethyl]amino}(3-pyridyl))carboxamide], the IC50 was determined as 1270 nM. Consider `CC(C)(C)OC(=O)NCCCC(=O)N1CCC[C@H](CNC(=O)c2ccc(-c3ccccc3C#N)nc2NCCc2cccc(F)c2)C1` [N-[((3R)-1-{4-[(tert-butoxy)carbonylamino]butanoyl}(3-piperidyl))methyl](6-(2-cyanophenyl)-2-{[2-(3-fluorophenyl)ethyl]amino}(3-pyridyl))carboxamide], for which the IC50 stood at 6160 nM. Regarding `N#Cc1ccccc1-c1ccc(C(=O)NCc2cccc(Br)n2)c(NCCc2cccc(F)c2)n1` [N-[(6-bromo(2-pyridyl))methyl](6-(2-cyanophenyl)-2-{[2-(3-fluorophenyl)ethyl]amino}(3-pyridyl))carboxamide], the IC50 stood at 233 nM. Turning to `COC(=O)N1CCC(CNC(=O)c2ccc(-c3ccccc3C#N)nc2NCCc2cccc(F)c2)CC1` [methyl 4-{[(6-(2-cyanophenyl)-2-{[2-(3-fluorophenyl)ethyl]amino}-3-pyridyl)carbonylamino]methyl}piperidinecarboxylate], the IC50 came out at 2130 nM. `Cc1ccc(-c2ccc(C(=O)NCc3cccnc3)c(NCCc3ccccn3)n2)c(C)c1` [{6-(2,4-dimethylphenyl)-2-[(2-(2-pyridyl)ethyl)amino](3-pyridyl)}-N-(3-pyridylmethyl)carboxamide]: the IC50 turned out to be 3960 nM. With `CS(=O)(=O)NCCNC(=O)c1ccc(-c2ccccc2C#N)nc1NCCc1cccc(F)c1` [(6-(2-cyanophenyl)-2-{[2-(3-fluorophenyl)ethyl]amino}(3-pyridyl))-N-{2-[(methylsulfonyl)amino]ethyl}carboxamide], the IC50 worked out at 326 nM. Regarding `COC(=O)c1cccc(CCNc2nc(-c3ccccc3)ccc2C(=O)NCc2cccnc2)c1` [methyl 3-[2-({6-phenyl-3-[N-(3-pyridylmethyl)carbamoyl]-2-pyridyl}amino)ethyl]benzoate], the IC50 was 28100 nM. The result for `C[C@@H](CNC(=O)c1ccc(-c2ccccc2C#N)nc1NCCc1cccc(F)c1)NC(=O)CN` reads 1460 nM; that for `CC(=O)c1ccc(-c2ccc(C(=O)NCc3cccnc3)c(NCCc3ccccn3)n2)cc1` [{6-(4-acetylphenyl)-2-[(2-(2-pyridyl)ethyl)amino](3-pyridyl)}-N-(3-pyridylmethyl)carboxamide], 2130 nM. The value for `N#Cc1ccccc1-c1ccc(C(=O)NCc2cccc(NCCCN)n2)c(NCCc2cccc(F)c2)n1` [N-({6-[(3-aminopropyl)amino](2-pyridyl)}methyl)(6-(2-cyanophenyl)-2-{[2-(3-fluorophenyl)ethyl]amino}(3-pyridyl))carboxamide] was 5 nM.
